# Tested on: resting responder T cells
# Assay: Third party MLR of resting responder T cells sorted after PXD exposure
# Format: cell-based, human
# Conditions: 10 μM PXD added day 5 of first MLR; sorted day 8, restimulated without PXD
# Procedure: Mixed lymphocyte reactions were established using unrelated, HLA-mismatched healthy donor blood samples as donor/recipient pairs. Stimulator PBMC were γ-irradiated with 30 Gy as described previously (Zenhausen et al., 2007). Responder PBMC were washed twice in PBS, 5,6-carboxy-succinimidyl-fluorescein-ester (CSFE)-labelled (1.25 μM, Sigma) at room temperature for 5 minutes, and washed twice in PBS/10% FCS. Two hundred thousand stimulator and responder cells were added per well at a 1:1 ratio in a 96 U-well plate in T cell medium. Stimulator and responder cells were also plated alone, and all cells were cultured in a 5% CO2, 37° C. humidified incubator. Viability, CFSE fluorescence and cell surface antigen expression were determined by flow cytometry. Cells were washed twice in FACS buffer (PBS, 2% FCS), and resuspended in 50 μL/5×10^5 cells and analysed on a Becton Dickinson LSRII FACS analyser using FlowJo (TreeStar) software.
# The experiment described above was expanded by determining the effect of PXD exposure on responder T cells that had previously been exposed to, but not activated in a MLR. Two consecutive sets of MLRs were set up, mixing responder T cells and γ-irradiated stimulator cells on day 0, adding 10 μM PXD or 0.1% DMSO on day 5, and analysing proliferation and viability of responder T cells on day 8. […]
compound,measurement,value
"Oc1ccc(C2=Cc3ccc(O)cc3OC2)cc1 [PXD, Isoflav-3-en-4′,7-diol]",viability and functionality of non-proliferating T cells,affects neither the viability nor the functionality

# — patent publication US20120039917A1, “IMMUNO[…]” (priority 2008, published 2012)
